Measured values taken from PubChem BioAssay (NCI).
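Growth conditions: 96-well plates. Treatment: test compound, 48 hours, 5 concentrations. Analysis: linear interpolation between bracketing concentrations; unreached endpoints set to highest concentration. At the GI50, growth is halved. At the TGI there is no net growth.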

Experiments:
Assay in all cases: NCI-60 cell line screen, 48 h
SF-268 CNS = system: SF-268 CNS
OVCAR-5 ovarian = system: OVCAR-5 ovarian
KM12 colon = system: KM12 colon
HOP-92 NSCLC = system: HOP-92 NSCLC
UACC-62 melanoma = system: UACC-62 melanoma
SF-539 CNS = system: SF-539 CNS
MALME-3M melanoma = system: MALME-3M melanoma
NCI-H460 lung = system: NCI-H460 lung
NCI/ADR-RES ovarian = system: NCI/ADR-RES ovarian
HL-60(TB) leukemia = system: HL-60(TB) leukemia
NCI-H522 lung = system: NCI-H522 lung
UACC-257 melanoma = system: UACC-257 melanoma
A498 renal = system: A498 renal
SK-MEL-2 melanoma = system: SK-MEL-2 melanoma
NCI-H23 lung = system: NCI-H23 lung
DU-145 prostate = system: DU-145 prostate
PC-3 prostate = system: PC-3 prostate
CCRF-CEM leukemia = system: CCRF-CEM leukemia
EKVX NSCLC = system: EKVX NSCLC
IGROV1 ovarian = system: IGROV1 ovarian
K-562 leukemia = system: K-562 leukemia
MDA-MB-231 breast = system: MDA-MB-231 breast
SW-620 colon = system: SW-620 colon
HCC-2998 colon = system: HCC-2998 colon
SNB-19 CNS = system: SNB-19 CNS
MOLT-4 leukemia = system: MOLT-4 leukemia
SN12C renal = system: SN12C renal
MDA-MB-468 breast = system: MDA-MB-468 breast
HOP-62 NSCLC = system: HOP-62 NSCLC
BT-549 breast = system: BT-549 breast
SF-295 CNS = system: SF-295 CNS
ACHN renal = system: ACHN renal
HCT-15 colon = system: HCT-15 colon
SK-MEL-5 melanoma = system: SK-MEL-5 melanoma
OVCAR-8 ovarian = system: OVCAR-8 ovarian
M14 melanoma = system: M14 melanoma
MCF7 breast = system: MCF7 breast
OVCAR-4 ovarian = system: OVCAR-4 ovarian
A549 NSCLC = system: A549 NSCLC
RXF 393 renal = system: RXF 393 renal
UO-31 renal = system: UO-31 renal
TK-10 renal = system: TK-10 renal
OVCAR-3 ovarian = system: OVCAR-3 ovarian
CAKI-1 renal = system: CAKI-1 renal
NCI-H226 lung = system: NCI-H226 lung
SK-MEL-28 melanoma = system: SK-MEL-28 melanoma
RPMI-8226 leukemia = system: RPMI-8226 leukemia
MDA-MB-435 = system: MDA-MB-435
LOX IMVI melanoma = system: LOX IMVI melanoma
SK-OV-3 ovarian = system: SK-OV-3 ovarian
HT29 colon = system: HT29 colon
COLO 205 colon = system: COLO 205 colon

Work on `COc1cccc(COc2ccc(/C=C3\Oc4cc(O)ccc4C3=O)cc2)c1` yielded a GI50 (SF-268 CNS) of over 100 µM, a TGI (SF-268 CNS) of over 100 µM and a GI50 (OVCAR-5 ovarian) of over 100 µM. For the same compound, the TGI (OVCAR-5 ovarian) was over 100 µM, the GI50 (KM12 colon) was over 100 µM and the TGI (KM12 colon) was over 100 µM. It also gave a GI50 (HOP-92 NSCLC) of 2.62 µM, a TGI (HOP-92 NSCLC) of over 100 µM and a GI50 (UACC-62 melanoma) of over 100 µM. It also gave a TGI (UACC-62 melanoma) of over 100 µM, a GI50 (SF-539 CNS) of 23.4 µM and a TGI (SF-539 CNS) of over 100 µM. It also gave a GI50 (MALME-3M melanoma) of over 100 µM, a TGI (MALME-3M melanoma) of over 100 µM and a GI50 (NCI-H460 lung) of over 100 µM. The TGI (NCI-H460 lung) was over 100 µM, the GI50 (NCI/ADR-RES ovarian) was over 100 µM and the TGI (NCI/ADR-RES ovarian) was over 100 µM. For the same compound, the GI50 (HL-60(TB) leukemia) was over 100 µM, the TGI (HL-60(TB) leukemia) was over 100 µM and the GI50 (NCI-H522 lung) was over 100 µM. It also gave a TGI (NCI-H522 lung) of over 100 µM, a GI50 (UACC-257 melanoma) of over 100 µM and a TGI (UACC-257 melanoma) of over 100 µM. For the same compound, the GI50 (A498 renal) was over 100 µM, the TGI (A498 renal) was over 100 µM and the GI50 (SK-MEL-2 melanoma) was over 100 µM. It also gave a TGI (SK-MEL-2 melanoma) of over 100 µM, a GI50 (NCI-H23 lung) of over 100 µM and a TGI (NCI-H23 lung) of over 100 µM. For the same compound, the GI50 (DU-145 prostate) was over 100 µM, the TGI (DU-145 prostate) was over 100 µM and the GI50 (PC-3 prostate) was over 100 µM. For the same compound, the TGI (PC-3 prostate) was over 100 µM, the GI50 (CCRF-CEM leukemia) was over 100 µM and the TGI (CCRF-CEM leukemia) was over 100 µM. The GI50 (EKVX NSCLC) was over 100 µM, the TGI (EKVX NSCLC) was over 100 µM and the GI50 (IGROV1 ovarian) was over 100 µM. It also gave a TGI (IGROV1 ovarian) of over 100 µM, a GI50 (K-562 leukemia) of over 100 µM and a TGI (K-562 leukemia) of over 100 µM. For the same compound, the GI50 (MDA-MB-231 breast) was over 100 µM, the TGI (MDA-MB-231 breast) was over 100 µM and the GI50 (SW-620 colon) was 23.1 µM. The TGI (SW-620 colon) was over 100 µM, the GI50 (HCC-2998 colon) was over 100 µM and the TGI (HCC-2998 colon) was over 100 µM. It also gave a GI50 (SNB-19 CNS) of over 100 µM, a TGI (SNB-19 CNS) of over 100 µM and a GI50 (MOLT-4 leukemia) of over 100 µM. The TGI (MOLT-4 leukemia) was over 100 µM, the GI50 (SN12C renal) was over 100 µM and the TGI (SN12C renal) was over 100 µM. It also gave a GI50 (MDA-MB-468 breast) of 42.5 µM, a TGI (MDA-MB-468 breast) of over 100 µM and a GI50 (HOP-62 NSCLC) of over 100 µM. For the same compound, the TGI (HOP-62 NSCLC) was over 100 µM, the GI50 (BT-549 breast) was over 100 µM and the TGI (BT-549 breast) was over 100 µM. For the same compound, the GI50 (SF-295 CNS) was over 100 µM, the TGI (SF-295 CNS) was over 100 µM and the GI50 (ACHN renal) was 4.97 µM. It also gave a TGI (ACHN renal) of over 100 µM, a GI50 (HCT-15 colon) of over 100 µM and a TGI (HCT-15 colon) of over 100 µM. It also gave a GI50 (SK-MEL-5 melanoma) of over 100 µM, a TGI (SK-MEL-5 melanoma) of over 100 µM and a GI50 (OVCAR-8 ovarian) of over 100 µM. For the same compound, the TGI (OVCAR-8 ovarian) was over 100 µM, the GI50 (M14 melanoma) was over 100 µM and the TGI (M14 melanoma) was over 100 µM. The GI50 (MCF7 breast) was over 100 µM, the TGI (MCF7 breast) was over 100 µM and the GI50 (OVCAR-4 ovarian) was 2.94 µM. It also gave a TGI (OVCAR-4 ovarian) of 10.6 µM, a GI50 (A549 NSCLC) of over 100 µM and a TGI (A549 NSCLC) of over 100 µM. It also gave a GI50 (RXF 393 renal) of over 100 µM, a TGI (RXF 393 renal) of over 100 µM and a GI50 (UO-31 renal) of over 100 µM. The TGI (UO-31 renal) was over 100 µM, the GI50 (TK-10 renal) was over 100 µM and the TGI (TK-10 renal) was over 100 µM. For the same compound, the GI50 (OVCAR-3 ovarian) was over 100 µM, the TGI (OVCAR-3 ovarian) was over 100 µM and the GI50 (CAKI-1 renal) was 85.2 µM. For the same compound, the TGI (CAKI-1 renal) was over 100 µM, the GI50 (NCI-H226 lung) was over 100 µM and the TGI (NCI-H226 lung) was over 100 µM. It also gave a GI50 (SK-MEL-28 melanoma) of over 100 µM, a TGI (SK-MEL-28 melanoma) of over 100 µM and a GI50 (RPMI-8226 leukemia) of over 100 µM. The TGI (RPMI-8226 leukemia) was over 100 µM, the GI50 (MDA-MB-435) was over 100 µM and the TGI (MDA-MB-435) was over 100 µM. For the same compound, the GI50 (LOX IMVI melanoma) was over 100 µM, the TGI (LOX IMVI melanoma) was over 100 µM and the GI50 (SK-OV-3 ovarian) was over 100 µM. The TGI (SK-OV-3 ovarian) was over 100 µM, the GI50 (HT29 colon) was over 100 µM and the TGI (HT29 colon) was over 100 µM. It also gave a GI50 (COLO 205 colon) of over 100 µM and a TGI (COLO 205 colon) of over 100 µM.
